Consider 3 compounds from patent US12521393B2, “Cytotoxicity targeting chimeras for CCR2-expressing cells” (GLAXOSMITHKLINE INTELLECTUAL PROPERTY DEVELOPMENT LIMITED, priority 2021, dated 2026).

Structures are written as SMILES.

Assay [1] concerns endogenous target monocytes in human PBMC. The experiment in a line: PBMC ex vivo monocyte depletion flow cytometry assay (Example 200). It counts as cell-based. Conditions: with anti-cotinine antibody (SEQ ID NO: 11/12), 18-24 hours, EC50 in molar, read-out: Ex Vivo Depletion Assay pEC50 (converted). In short, it runs like this: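 Monocyte depletion is reported as pEC50, averaged or given individually across runs, and read by flow cytometry staining CD45, CD14 and CD4 with a viability dye. Compounds, diluted four-fold over 11 points from 1 mM DMSO stocks, were combined with 30 μg/mL Fc-enhanced anti-cotinine antibody and human PBMC, then incubated 18-24 h at 37° C.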
For orientation: A flow cytometer gives signals particle by particle.

Assay [2] deals with CCR2 expressing cells (CD11b+Ly6c+Hi) in peripheral blood. Put plainly: In vivo depletion assay, flow cytometry of peripheral blood (Example 201). Set-up: species or system human CCR2 knock-in mice (C57 background). Conditions: hCCR2 knock-in mice, IV 0.1 mpk compound + 10 mpk anti-cotinine antibody (SEQ ID NO: 13/14), peripheral blood at 48 hr. On the procedure: Stock solution preparation. Stock solutions of compounds of Formula (I) were prepared at 20 mg/mL and 100 mg/mL in […] for PK/PD and dose tolerability studies respectively. Stock solutions were stored at […] until further usage. on the day of experiment, the stock Solution of the compound of Formula (I) was removed from storage at […] and thawed at room temperature. Anti-cotinine antibody having a heavy chain sequence of SEC ID NO: 13 and a light chain sequence of SEQ ID NO: 14 (rabbit variable region sequence with mouse IgG2a Fc domain), if required was removed from storage at −80° C. and thawed at room temperature. Antibody vials were immediately transferred into wet ice after thawing. Compounds of Formula (I) were further diluted in DMSO as per experimental requirements.
The formulation composition was Saline: DMSI: PBS.
Saline was added based on the quantity required and then stock solution of the compound of Formula (I) prepared in DMSO, followed by addition of antibody in PBS. Formulations were incubated at room temperature for 30 minutes before administration to the mouse. DMSO was used at 1 to % (v/v) in the final formulation.
After bleeding, each mouse was sacrificed by cervical dislocation. […] Flow Cytometry Analysis:
CCR2 depletion in peripheral blood was determined by flow cytometry. Briefly, peripheral blood was collected from all animals at the end of study termination and processed. Blood samples were lysed using 1×RBC Lysis buffer and the resulting cell pellet was washed twice in FACS buffer (HBSS containing 5% FBS). Cells were subjected to Fc blocking using mouse Fc block from Biolegend (Trustain, anti-mouse CD16/32, Cat: 101319) to block non-specific binding followed by surface staining for immune markers (CD45, CD3, CD11 b, Ly6C, human CCR2). Surface staining was done for 30 minutes in ice and cells were washed twice to remove unbound antibodies. Cells were stained with 7AAD to determine viability and acquired on BD FACSVerse flow cytometer. Appropriate FMO controls and single-color controls were included in the experiment for gating and compensation respectively.
Percent depletion of CD11 b+Ly6c+Hi cells and CCR2 expression for the different treatment groups was determined.

Consider `CC(C)N(C)[C@@H]1CC[C@H](N2CC[C@H](Nc3ncnc4ccc(C(F)(F)F)cc34)C2=O)[C@H](NC(=O)C2CCN(c3cnc(NCCOCCOCCNC(=O)[C@H]4CC(=O)N(C)[C@@H]4c4cccnc4)cn3)CC2)C1` [Example 162, N-((1R,2S,5R)-5-(Isopropyl(methyl)amino)-2-((S)-2-oxo-3-((6-(trifluoromethyl)quinazolin-4-yl)amino)pyrrolidin-1-yl)cyclohexyl)-1-(5-((2-(2-(2-((2S,3S)-1-methyl-5-oxo-2-(pyridin-3-yl)pyrrolidine-3-carboxamido)ethoxy)ethoxy)ethyl)amino)pyrazin-2-yl)piperidine-4-carboxamide], for which, in assay [1], the EC50 was 1.58 nM. Also, in assay [2], the “% Depletion of CCR2 expressing cells” value was found to be 66%.

Consider `CC(C)N(C)[C@@H]1CC[C@H](N2CC[C@H](Nc3ncnc4ccc(C(F)(F)F)cc34)C2=O)[C@H](NC(=O)[C@H]2CC[C@@H](NC(=O)C3CCC4(CC3)CCN(CCNC(=O)[C@H]3CC(=O)N(C)[C@@H]3c3cccnc3)CC4)CC2)C1` [Example 170, N-((1S,4s)-4-(((1R,2S,5R)-5-(Isopropyl(methyl)amino)-2-((S)-2-oxo-3-((6-(trifluoromethyl)quinazolin-4-yl)amino)pyrrolidin-1-yl)cyclohexyl)carbamoyl)cyclohexyl)-3-(2-((2S,3S)-1-methyl-5-oxo-2-(pyridin-3-yl)pyrrolidine-3-carboxamido)ethyl)-3-azaspiro[5.5]undecane-9-carboxamide], for which the EC50 in assay [1] is 0.398 nM. In addition, in assay [2], the “% Depletion of CCR2 expressing cells” value is on record as 94.75%.

As for `CC(C)N(C)[C@@H]1CC[C@H](N2CC[C@H](Nc3ncnc4ccc(C(F)(F)F)cc34)C2=O)[C@H](NC(=O)C2CCN(C3CCN(C(=O)CCOCCOCCNC(=O)[C@H]4CC(=O)N(C)[C@@H]4c4cccnc4)CC3)CC2)C1` [Example 172, N-((1R,2S,5R)-5-(Isopropyl(methyl)amino)-2-((S)-2-oxo-3-((6-(trifluoromethyl)quinazolin-4-yl)amino)pyrrolidin-1-yl)cyclohexyl)-1′-(3-(2-(2-((2S,3S)-1-methyl-5-oxo-2-(pyridin-3-yl)pyrrolidine-3-carboxamido)ethoxy)ethoxy)propanoyl)-[1,4′-bipiperidine]-4-carboxamide], in assay [1], the EC50 is 2 nM. In addition, the “% Depletion of CCR2 expressing cells” value in assay [2] was found to be 80%.
